Columns and labels:
Type in all cases: cell-based, human
[1] = test system: DMSO-differentiated HL-60 cells; assay: Energy use by DMSO-differentiated HL-60 cells
Method in brief: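 HL-60 cells, […] differentiated with 1.25% DMSO for 3 days, were plated at 5×10^4/well in DME-R with test energy sources at 0.033–20 mM final for 24 h at 37 °C. Viability was measured by MTS/PMS at 490 nm (ref 650 nm) 24 h after reagent addition. Values were background-subtracted using cell-free plates and expressed as % of the no-energy-source control.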

HL-60 cells = assay: Effect of 10 mM citric acid on HL-60 energy utilization; settings: negative control without energy sources and without citric acid
HepG2 cells = HepG2 cells on flat bottom plastic wells, energy sources at a range of concentrations
Method in brief: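 HepG2 cells plated overnight at 4×10^4 cells/cm^2 in glucose-, glutamine- and pyruvate-free DME with 10% HI FBS, then exposed to each energy source at 0.033 to 20 mM final for 48 to 72 h at 37° C, 5% CO2. MTS/PMS colour read at 490 nm (reference 650 nm) after 4-24 h; cell-free plate OD subtracted, data normalised to % negative control (water, no energy source).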

[2] = energy source 0.03 mM with 10 mM citric acid
[3] = energy source 0.10 mM with 10 mM citric acid
[4] = energy source 0.33 mM with 10 mM citric acid
[5] = energy source 1.00 mM with 10 mM citric acid
[6] = energy source 3.3 mM with 10 mM citric acid
[7] = energy source 10 mM with 10 mM citric acid
[8] = energy source 15 mM with 10 mM citric acid
[9] = energy source 20 mM with 10 mM citric acid

O=C(O)[C@@H]1C[C@@H](O)CN1 [hydroxy L-proline]
Energy Use by DMSO-Differentiated HL-60 Cells ([1]; Conc. 0.03 mM): 102.8 % of negative control | Energy Use by DMSO-Differentiated HL-60 Cells ([1]; Conc. 0.10 mM): 110.5 % of negative control | Energy Use by DMSO-Differentiated HL-60 Cells ([1]; Conc. 0.33 mM): 120.5 % of negative control | Energy Use by DMSO-Differentiated HL-60 Cells ([1]; Conc. 1.00 mM): 121.9 % of negative control | Energy Use by DMSO-Differentiated HL-60 Cells ([1]; Conc. 3.3 mM): 129.0 % of negative control | Energy Use by DMSO-Differentiated HL-60 Cells ([1]; Conc. 10 mM): 126.9 % of negative control | Energy Use by DMSO-Differentiated HL-60 Cells ([1]; Conc. 15 mM): 109.0 % of negative control | Energy Use by DMSO-Differentiated HL-60 Cells ([1]; Conc. 20 mM): 92.0 % of negative control | Effect of 10 mM Citric Acid on HL-60 Energy Utilization (HL-60 cells; [2]): 7.6 % of negative control | Effect of 10 mM Citric Acid on HL-60 Energy Utilization (HL-60 cells; [3]): 17.7 % of negative control | Effect of 10 mM Citric Acid on HL-60 Energy Utilization (HL-60 cells; [4]): 25.0 % of negative control | Effect of 10 mM Citric Acid on HL-60 Energy Utilization (HL-60 cells; [5]): 37.5 % of negative control | Effect of 10 mM Citric Acid on HL-60 Energy Utilization (HL-60 cells; [6]): 49.0 % of negative control | Effect of 10 mM Citric Acid on HL-60 Energy Utilization (HL-60 cells; [7]): 85.0 % of negative control | Effect of 10 mM Citric Acid on HL-60 Energy Utilization (HL-60 cells; [8]): 87.4 % of negative control | Effect of 10 mM Citric Acid on HL-60 Energy Utilization (HL-60 cells; [9]): 68.8 % of negative control | HepG2 Cells Responses After 72 hours in Culture and a 4 hour Color Development Period (HepG2 cells; Conc. 0.03 mM): 97.0 % of negative control | HepG2 Cells Responses After 72 hours in Culture and a 4 hour Color Development Period (HepG2 cells; Conc. 0.10 mM): 139.9 % of negative control | HepG2 Cells Responses After 72 hours in Culture and a 4 hour Color Development Period (HepG2 cells; Conc. 0.33 mM): 162.2 % of negative control | HepG2 Cells Responses After 72 hours in Culture and a 4 hour Color Development Period (HepG2 cells; Conc. 1.00 mM): 140.5 % of negative control | HepG2 Cells Responses After 72 hours in Culture and a 4 hour Color Development Period (HepG2 cells; Conc. 3.3 mM): 126.8 % of negative control | HepG2 Cells Responses After 72 hours in Culture and a 4 hour Color Development Period (HepG2 cells; Conc. 10 mM): 123.1 % of negative control | HepG2 Cells Responses After 72 hours in Culture and a 4 hour Color Development Period (HepG2 cells; Conc. 15 mM): 101.3 % of negative control | HepG2 Cells Responses After 72 hours in Culture and a 4 hour Color Development Period (HepG2 cells; Conc. 20 mM): 62.8 % of negative control

COC(=O)CCC(=O)O [mono methyl succinate]
activity at 30 µM ([1]; Homo sapiens, HL-60, 24 h, Conc. 0.03 mM, read-out: Energy Use by DMSO-Differentiated HL-60 Cells): 104% | activity at 100 µM ([1]; Homo sapiens, HL-60, 24 h, Conc. 0.10 mM, read-out: Energy Use by DMSO-Differentiated HL-60 Cells): 93.4% | activity at 330 µM ([1]; Homo sapiens, HL-60, 24 h, Conc. 0.33 mM, read-out: Energy Use by DMSO-Differentiated HL-60 Cells): 124% | activity at 1000 µM ([1]; Homo sapiens, HL-60, 24 h, Conc. 1.00 mM, read-out: Energy Use by DMSO-Differentiated HL-60 Cells): 142% | activity at 3300 µM ([1]; Homo sapiens, HL-60, 24 h, Conc. 3.3 mM, read-out: Energy Use by DMSO-Differentiated HL-60 Cells): 184% | activity at 10000 µM ([1]; Homo sapiens, HL-60, 24 h, Conc. 10 mM, read-out: Energy Use by DMSO-Differentiated HL-60 Cells): 194% | activity at 15000 µM ([1]; Homo sapiens, HL-60, 24 h, Conc. 15 mM, read-out: Energy Use by DMSO-Differentiated HL-60 Cells): 156% | activity at 20000 µM ([1]; Homo sapiens, HL-60, 24 h, Conc. 20 mM, read-out: Energy Use by DMSO-Differentiated HL-60 Cells): 118% | Effect of 10 mM Citric Acid on HL-60 Energy Utilization (HL-60 cells; [2]): 4.9 % of negative control | Effect of 10 mM Citric Acid on HL-60 Energy Utilization (HL-60 cells; [3]): 13.0 % of negative control | Effect of 10 mM Citric Acid on HL-60 Energy Utilization (HL-60 cells; [4]): 16.9 % of negative control | Effect of 10 mM Citric Acid on HL-60 Energy Utilization (HL-60 cells; [5]): 51.7 % of negative control | Effect of 10 mM Citric Acid on HL-60 Energy Utilization (HL-60 cells; [6]): 163.6 % of negative control | Effect of 10 mM Citric Acid on HL-60 Energy Utilization (HL-60 cells; [7]): 210.0 % of negative control | Effect of 10 mM Citric Acid on HL-60 Energy Utilization (HL-60 cells; [8]): 192.3 % of negative control | Effect of 10 mM Citric Acid on HL-60 Energy Utilization (HL-60 cells; [9]): 173.9 % of negative control | activity at 30 µM (HepG2 cells; Homo sapiens, HepG2, 72 h, Conc. 0.03 mM, read-out: HepG2 Cells Responses After 72 hours in Culture and a 4 hour Color Development Period): 144% | activity at 100 µM (HepG2 cells; Homo sapiens, HepG2, 72 h, Conc. 0.10 mM, read-out: HepG2 Cells Responses After 72 hours in Culture and a 4 hour Color Development Period): 161% | activity at 330 µM (HepG2 cells; Homo sapiens, HepG2, 72 h, Conc. 0.33 mM, read-out: HepG2 Cells Responses After 72 hours in Culture and a 4 hour Color Development Period): 179% | activity at 1000 µM (HepG2 cells; Homo sapiens, HepG2, 72 h, Conc. 1.00 mM, read-out: HepG2 Cells Responses After 72 hours in Culture and a 4 hour Color Development Period): 180% | activity at 3300 µM (HepG2 cells; Homo sapiens, HepG2, 72 h, Conc. 3.3 mM, read-out: HepG2 Cells Responses After 72 hours in Culture and a 4 hour Color Development Period): 200% | activity at 10000 µM (HepG2 cells; Homo sapiens, HepG2, 72 h, Conc. 10 mM, read-out: HepG2 Cells Responses After 72 hours in Culture and a 4 hour Color Development Period): 224% | activity at 15000 µM (HepG2 cells; Homo sapiens, HepG2, 72 h, Conc. 15 mM, read-out: HepG2 Cells Responses After 72 hours in Culture and a 4 hour Color Development Period): 357% | activity at 20000 µM (HepG2 cells; Homo sapiens, HepG2, 72 h, Conc. 20 mM, read-out: HepG2 Cells Responses After 72 hours in Culture and a 4 hour Color Development Period): 238%

Source: US9274101B2 (BIOLOG, Inc., priority 2001, dated 2016)
